The record followed here is patent US10357536B2, “Anti-pathogenic methods” (Hexima Limited, priority 2012, dated 2019).

Entries after “also recorded” stand apart in the source; their conditions may differ. No end group written: not given here.

One assay relates to Fov hyphae. It counts as cell-based, Fusarium oxysporum f. sp vasinfectum.
For another assay, the system named is Fgr hyphae. It counts as cell-based, Fusarium graminearum.
The test system of another assay is hyphal cells. In kind it is cell-based.

For “HXP4: artificial variant defensin, SEQ ID NO: 70 (RECKTESHRFKGPCITKPPCRKACISEKFTDGHCSKILRRCLCTKPC; Amino acid sequence of HXP4 (NaD2 Loop1B [NaD2L1B] in NaD1))”, in the assay on Fov hyphae, the Permeability index is 0.7 and the “permeabilization of Fov hyphae (SYTOX green uptake), in words” value (“permeabilization of Fov hyphae” for short) is “able to permeabilize Fov hyphae; also recorded: permeabilizing”. For the same substance, in the assay on Fgr hyphae, the Permeability index is on record as 1.3 and the “permeabilization of Fgr hyphae (SYTOX green uptake), in words” value (“permeabilization of Fgr hyphae” for short) is on record as “significantly more permeabilisation of Fgr hyphae; also recorded: permeabilizing”. The Permeabilizing entry in the assay with hyphal cells is “Yes”.
For the substance “VP45: Class I plant defensin, Zea mays, mature domain SEQ ID NO: 83 (TVCMRHNNFYHGPCMSNKDCANSCVQHNLGVGGYCRGKIPFNKECMCTFEC; VP45 mature domain)”, the Permeabilizing entry in the assay on hyphal cells is “No”.
With “HXL015: Class I plant defensin, Oryza sativa, mature domain SEQ ID NO: 45 (RHCLSQSHRFKGMCVSSNNCANVCRTESFPDGECKSHGLERKCFCKKVC; HXL015 Oryza sativa mature domain aa)”, the Permeabilizing result in the assay with hyphal cells is given as “No”.
Still for that read-out and setting: the value for “HXP35: artificial variant defensin, SEQ ID NO: 72 (RECKTESDTYRGVCITKPPCRKACISEKFTDGHCSKILRRCLCTKPC; Amino acid sequence of HXP35 (PsD1 Loop1B [PsDL1B] in NaD1))” was “Yes”.
Take “NaD1: Class II plant defensin, Nicotiana alata, accession Q8GTM0; positive control of the permeabilization assay (RECKTESNTFPGICITKPPCRKACISEKFTDGHCSKILRRCLCTKPC; UniProt Q8GTM0 26-72, looked up) [reference compound]”: in the assay with Fov hyphae, the Permeability index is on record as 1.0 and the “permeabilization of Fov hyphae” value was “able to permeabilize Fov hyphae; also recorded: permeabilizing”. For the same substance, in the assay on Fgr hyphae, the Permeability index is given as 1.0 and the “permeabilization of Fgr hyphae” value was “significantly more permeabilisation of Fgr hyphae; also recorded: permeabilizing”. Further, in the assay on hyphal cells, the Permeabilizing result is on record as “Yes”.
For “HXP34: artificial variant defensin, SEQ ID NO: 71 (RECKTESQHHSFPCITKPPCRKACISEKFTDGHCSKILRRCLCTKPC; Amino acid sequence of HXP34 (Zea2 Loop1B [Zea2L1B] in NaD1))”, in the assay on hyphal cells, the Permeabilizing result is “Yes”.
The same measure, in the same setting: the value for “NoD173: Class II plant defensin, Nicotiana occidentalis, mature domain SEQ ID NO: 98 (RQCKAESNTFTGICIAKPPCRQACIREKFTDGHCSKVLRRCLCTKRC; NoD173 Nictoniana occidentalis)” was “Yes”; that for “HXL005: Class I plant defensin, Taraxacum kok-saghyz, mature domain SEQ ID NO: 15 (KMCQTTSHAFSCVNDSGCSGSCEKQGFASGKCDGVRRRCTCYKKC; HXL005 Taraxacum kok-saghyz mature domain)” was “No”.
As to “HXL004: Class I plant defensin, Nicotiana benthamiana, mature domain SEQ ID NO: 12 (RTCESQSHRFKGLCFSRSNCASVCHTEGFNGGHCRGFRRRCFCTRHC; HXL004 Nicotiana benthamiana mature domain aa)”, in the assay with Fgr hyphae, the Permeability index is 1.6 and the “permeabilization of Fgr hyphae” value is “significantly more permeabilisation of Fgr hyphae; also recorded: permeabilizing”. In addition, the Permeabilizing result with hyphal cells is listed as “Yes”.
In the case of “HXL007: Class I plant defensin, Cyamopsis tetragonoloba, mature domain SEQ ID NO: 21 (RTCESLADTYRGPCFTDGSCDDHCKNKEHLISGRCRNDFRCWCTRNC; HXL007 Cyamopsis tetragonoloba mature domain)”, in the assay on Fov hyphae, the Permeability index came to 1.2 and the “permeabilization of Fov hyphae” value is recorded as “able to permeabilize Fov hyphae; also recorded: permeabilizing”. In addition, the Permeabilizing entry with hyphal cells was “Yes”.
For the substance “HXL021: Class I plant defensin, Arachis hypogaea, mature domain SEQ ID NO: 63 (ATCENLADTYRGPCFTTGSCDDHCKNKEHLLSGRCRDDFRCWCTRNC; HXL021 Arachis hypogaea mature domain aa)”, in the assay on Fgr hyphae, the Permeability index was 0.5 and the “permeabilization of Fgr hyphae” value is given as “non-permeabilizing”. The Permeabilizing entry in the assay on hyphal cells is reported as “No”.
Take “VP135: Class I plant defensin, Picramnia pentandra, mature domain SEQ ID NO: 85 (RICSSLSHGYKGPCASDHNCALVCRNEGFSGGDCHGLRRRCFCTKAC; VP135 mature domain)”: the Permeabilizing result with hyphal cells is “No”.
In the case of “HXL013: Class I plant defensin, Glycine max, mature domain SEQ ID NO: 39; Table 2 gives SBI6 the same SEQ ID NO (KDCLTRRHGFQGRCLFDRQCAHVCRSDGPIGGQCRGPLRKCFCSRPC; HXL013 Glycine max mature domain aa)”, in the assay on Fgr hyphae, the Permeability index was found to be 1.4 and the “permeabilization of Fgr hyphae” value is on record as “permeabilizing”. In addition, in the assay with hyphal cells, the Permeabilizing result is “Yes”.
In the case of “RsAFP2: Class I plant defensin, Raphanus sativus, accession P30230 (QKLCQRPSGTWSGVCGNNNACKNQCIRLEKARHGSCNYVFPAHKCICYFPC; ends and bridges not checked; cysteine pairing not given here; UniProt P30230 30-80, looked up)”, in the assay with Fgr hyphae, the Permeability index amounted to 0.3 and the “permeabilization of Fgr hyphae” value is given as “non-permeabilizing”. Besides, the Permeabilizing result in the assay with hyphal cells is recorded as “No”.
Consider “HXL008: Class I plant defensin, Picramnia pentandra, mature domain SEQ ID NO: 24 (KVCTKPSKFFKGLCGTDGACTTACRKEGLHSGYCQLKGFLNSVCVCRKHC; HXL008 Picramnia pentandra mature domain aa)”, for which, in the assay on Fov hyphae, the Permeability index was 0.8 and the “permeabilization of Fov hyphae” value is reported as “able to permeabilize Fov hyphae; also recorded: permeabilizing”. For the same substance, in the assay with Fgr hyphae, the Permeability index was determined as 0.9 and the “permeabilization of Fgr hyphae” value was “significantly more permeabilisation of Fgr hyphae; also recorded: permeabilizing”. Further, the Permeabilizing entry in the assay on hyphal cells is listed as “Yes”.
For the substance “HXL002: Class I plant defensin, Triticum aestivum, mature domain SEQ ID NO: 6 (RDCLSQSHKFKGACLSSSNCAAVCRTENFPDGECHTHNFARKCFCKRAC; HXL002 Triticum aestivum mature domain)”, in the assay on Fov hyphae, the Permeability index was found to be 0.9 and the “permeabilization of Fov hyphae” value is listed as “able to permeabilize Fov hyphae; also recorded: permeabilizing”. For the same substance, in the assay with Fgr hyphae, the Permeability index was determined as 1.0 and the “permeabilization of Fgr hyphae” value is “significantly more permeabilisation of Fgr hyphae; also recorded: permeabilizing”. In the assay on hyphal cells, the Permeabilizing result is given as “Yes”.
In the assay on Fgr hyphae, “HXL001: Class I plant defensin, Zea mays, mature domain SEQ ID NO: 3 (RHCLSQSHRFKGLCMSSNNCANVCETQNFPGGECKAEGATRKCFCKKIC; HXL001 Zea mays mature domain)” yielded a Permeability index of 0.9. Also, the Permeabilizing entry with hyphal cells is reported as “Yes”.
For “Hordothionin: Class I plant defensin, Hordeum vulgare, accession P20230”, in the assay with Fgr hyphae, the Permeability index amounted to 0.4 and the “permeabilization of Fgr hyphae” value was “non-permeabilizing”. Besides, the Permeabilizing result in the assay with hyphal cells is reported as “No”.
Take “VP42: Class I plant defensin, Triticum aestivum, mature domain SEQ ID NO: 81 (RHCESQSHRYRGACWRDDNCKHVCNTEGFPSGKCKFHGFESKCVCTKPC; VP42 mature domain)”: the Permeabilizing entry in the assay with hyphal cells is on record as “No”.
On to “HXL009: Class I plant defensin, Zea mays, mature domain SEQ ID NO: 27 (TVCMRHNNFYHGPCMSNKDCANSCVQHNLGVGGYCRGKIPFNKECMCTFEC; HXL009 Zea mays mature domain aa)”, for which, in the assay on Fgr hyphae, the Permeability index is reported as 0.4 and the “permeabilization of Fgr hyphae” value was “non-permeabilizing”. Also, in the assay on hyphal cells, the Permeabilizing result is “No”.
